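Grown in 96-well plates, cells were treated for 48 hours with each compound at five concentrations. Insufficient inhibition: endpoint recorded as highest concentration tested. Here, GI50 denotes the concentration required for 50% inhibition of growth.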 Calls of active or inactive are those of the source. Rule as the data show it: active = GI50 up to about 1.1 µM and inactive = higher.
Legend:
Experiment in all cases: inhibition of tumour cell growth, NCI panel, 48 h
SNB-75 = test system: SNB-75
SNB-19 = test system: SNB-19
HL-60 = test system: HL-60
NCI-H522 = test system: NCI-H522
MOLT-4 = test system: MOLT-4
MDA-MB-231 = test system: MDA-MB-231
SK-OV-3 = test system: SK-OV-3
SK-MEL-5 = test system: SK-MEL-5
Malme-3M = test system: Malme-3M
BT-549 = test system: BT-549
HT-29 = test system: HT-29
UO-31 = test system: UO-31
786-0 = test system: 786-0
NCI-H23 = test system: NCI-H23
U-251 = test system: U-251
HOP-62 = test system: HOP-62
TK-10 = test system: TK-10
KM12 = test system: KM12
Hs-578T = test system: Hs-578T
MCF7 = test system: MCF7

Measured: GI50

Nc1ccc2c3[nH]c4cc(N)ccc4cc-3nc2c1
active: SNB-75 0.12 µM | SNB-19 0.209 µM | HL-60 0.273 µM | MOLT-4 0.0789 µM | MDA-MB-231 0.455 µM | SK-OV-3 0.314 µM | SK-MEL-5 0.237 µM | BT-549 0.984 µM | HT-29 0.145 µM | UO-31 0.0925 µM | 786-0 0.121 µM | NCI-H23 0.202 µM | U-251 0.156 µM | HOP-62 0.117 µM | KM12 0.167 µM | Hs-578T 0.11 µM | MCF7 0.069 µM
inactive: NCI-H522 22.6 µM | Malme-3M 2.66 µM | TK-10 2.09 µM

C[C@@]12C[C@@H](c3ccccc3O1)N1CCCSC1=N2
inactive: SNB-75 > 100 µM | SNB-19 > 100 µM | HL-60 > 100 µM | NCI-H522 > 100 µM | MOLT-4 > 100 µM | MDA-MB-231 > 100 µM | SK-OV-3 > 100 µM | SK-MEL-5 > 100 µM | Malme-3M > 100 µM | BT-549 > 100 µM | HT-29 > 100 µM | UO-31 > 100 µM | 786-0 > 100 µM | NCI-H23 > 100 µM | U-251 > 100 µM | HOP-62 > 100 µM | TK-10 > 100 µM | KM12 > 100 µM | Hs-578T > 100 µM | MCF7 > 100 µM

Brc1ccc2[nH]cc(-c3csc(-c4c[nH]c5ccc(Br)cc45)n3)c2c1
inactive: SNB-75 2.39 µM | SNB-19 2.88 µM | HL-60 3.24 µM | NCI-H522 1.66 µM | MOLT-4 1.63 µM | MDA-MB-231 1.66 µM | SK-OV-3 2.5 µM | SK-MEL-5 1.64 µM | Malme-3M 1.56 µM | BT-549 5.75 µM | HT-29 1.7 µM | UO-31 2.42 µM | 786-0 1.8 µM | NCI-H23 2.27 µM | U-251 1.82 µM | HOP-62 3.25 µM | TK-10 2.69 µM | KM12 1.47 µM | Hs-578T 3.79 µM | MCF7 2.7 µM

CN1CCN(c2c(Cl)cc(Cl)c3[nH]c4ccccc4c(=O)c23)CC1
inactive: SNB-75 9.91 µM | SNB-19 6.4 µM | HL-60 2.28 µM | NCI-H522 2.77 µM | MOLT-4 1.18 µM | MDA-MB-231 10.3 µM | SK-OV-3 11.1 µM | SK-MEL-5 9.71 µM | Malme-3M 1.96 µM | BT-549 16.1 µM | HT-29 3.22 µM | UO-31 4.29 µM | 786-0 5.75 µM | NCI-H23 8.87 µM | U-251 5.82 µM | HOP-62 6.15 µM | TK-10 10.6 µM | KM12 6.11 µM | Hs-578T 4.8 µM | MCF7 1.43 µM

O=C(CCCl)NN=C1NCCCCN1
inactive: SNB-75 > 100 µM | SNB-19 > 100 µM | HL-60 > 100 µM | NCI-H522 > 100 µM | MOLT-4 > 100 µM | MDA-MB-231 > 100 µM | SK-OV-3 > 100 µM | SK-MEL-5 > 100 µM | Malme-3M > 100 µM | BT-549 > 100 µM | HT-29 > 100 µM | UO-31 > 100 µM | 786-0 > 100 µM | NCI-H23 > 100 µM | U-251 > 100 µM | HOP-62 > 100 µM | TK-10 > 100 µM | KM12 > 100 µM | Hs-578T > 100 µM | MCF7 > 100 µM

— ChEMBL document CHEMBL1201862, “PubChem BioAssay data set” (2004)
